The values below come from PubChem BioAssay (NCI).

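Briefly, cells in 96-well plates were exposed to five compound concentrations for 48 h, and endpoints were estimated by linear interpolation. GI50: concentration for 50% inhibition of growth. TGI: total growth inhibition.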

Among the test systems are IGROV1 ovarian; HCT-116 colon; CCRF-CEM leukemia; NCI-H226 lung; BT-549 breast; OVCAR-8 ovarian; NCI-H23 lung; HT29 colon; HL-60(TB) leukemia; COLO 205 colon.
What all share (assay): NCI-60 cell line screen, 48 h

On to `CC(C)(C)C1CC[C@H](O)[C@H]([C@H](O)CC2CC(=O)N(c3ccccc3)C(=O)C2)C1` (some centres not stated), for which the TGI in the assay on IGROV1 ovarian, in the assay with HCT-116 colon, in the assay with CCRF-CEM leukemia, in the assay on NCI-H226 lung, in the assay with BT-549 breast and with OVCAR-8 ovarian was greater than 100 µM in each case. Further, the TGI with NCI-H23 lung, with HT29 colon and in the assay on HL-60(TB) leukemia was greater than 100 µM each time.

On to `S=C(NCc1ccccc1)N/N=C/c1ccccn1`, for which the TGI in the assay with IGROV1 ovarian is greater than 62.8 µM; in the assay with HCT-116 colon, 15.4 µM; with NCI-H226 lung, 17.7 µM; with BT-549 breast it was greater than 100 µM; in the assay on OVCAR-8 ovarian, greater than 76.2 µM; in the assay on COLO 205 colon, greater than 100 µM. The TGI is greater than 100 µM in the assay on NCI-H23 lung, greater than 100 µM in the assay with HT29 colon and 0.183 µM in the assay with HL-60(TB) leukemia.

In the case of `CS(=O)(=O)NC12CCC(c3ccccc31)c1ccccc12`, the TGI in the assay on IGROV1 ovarian, with HCT-116 colon, with CCRF-CEM leukemia, in the assay on NCI-H226 lung, with BT-549 breast and in the assay with COLO 205 colon was greater than 100 µM throughout. Besides, the TGI in the assay on NCI-H23 lung, in the assay on HT29 colon and with HL-60(TB) leukemia was greater than 100 µM in each case.

Consider `Cc1cc2c(c(=O)n1C)SCC2`, for which the TGI in the assay on IGROV1 ovarian, in the assay with HCT-116 colon, with CCRF-CEM leukemia, with NCI-H226 lung, in the assay on BT-549 breast and with OVCAR-8 ovarian was greater than 100 µM throughout. In addition, the TGI with COLO 205 colon, in the assay on NCI-H23 lung and with HT29 colon was greater than 100 µM each time.

As for `CCCNc1ncnc2[nH]ncc12`, the TGI in the assay on IGROV1 ovarian, with HCT-116 colon, with CCRF-CEM leukemia, in the assay on BT-549 breast, in the assay on OVCAR-8 ovarian and in the assay with COLO 205 colon was greater than 100 µM throughout. The TGI in the assay with NCI-H23 lung, in the assay on HT29 colon and with HL-60(TB) leukemia was greater than 100 µM each time.

Consider `CC(=O)Nc1cc(Nc2cc(=O)[nH]c(=O)[nH]2)ccc1C`, for which the TGI with IGROV1 ovarian, in the assay with HCT-116 colon, with CCRF-CEM leukemia, in the assay on NCI-H226 lung, with BT-549 breast and in the assay on OVCAR-8 ovarian was greater than 100 µM in each case. Moreover, the TGI in the assay on COLO 205 colon and in the assay with HL-60(TB) leukemia was greater than 100 µM throughout.

Regarding `Cc1ccc(S(=O)(=O)n2cc(C#N)c(C#N)c2)cc1`, the TGI is greater than 100 µM in the assay with IGROV1 ovarian; greater than 100 µM in the assay with HCT-116 colon; 92.1 µM with CCRF-CEM leukemia; 45.2 µM in the assay with BT-549 breast; greater than 100 µM in the assay with OVCAR-8 ovarian; 68.2 µM in the assay with COLO 205 colon. Further, the figures for the TGI with NCI-H23 lung, with HT29 colon and in the assay on HL-60(TB) leukemia were 91.3 µM, 65.9 µM and 71.6 µM, respectively.

For the compound `C=C(C)[C@@H]1CC[C@]2(C(=O)O)CC[C@]3(C)[C@H](CCC4[C@@]5(C)CC[C@H](C(=O)/C=C/c6ccc(O)c(O)c6)C(C)(C)[C@@H]5CC[C@]43C)[C@@H]12` (some centres not stated), the TGI was greater than 100 µM with IGROV1 ovarian; greater than 100 µM in the assay on HCT-116 colon; greater than 100 µM with CCRF-CEM leukemia; greater than 100 µM in the assay with BT-549 breast; 54.5 µM in the assay on OVCAR-8 ovarian; 13.8 µM with COLO 205 colon. Further, the values for the TGI with NCI-H23 lung and with HL-60(TB) leukemia were 9.62 µM and greater than 100 µM, respectively.

On to `O=C1C=CC(=O)c2c(Cl)ccc(O)c21`, for which the TGI was 21 µM with IGROV1 ovarian; 23.5 µM in the assay on HCT-116 colon; greater than 100 µM in the assay on CCRF-CEM leukemia; greater than 100 µM in the assay with NCI-H226 lung; 50.2 µM in the assay with OVCAR-8 ovarian; 25.8 µM in the assay on COLO 205 colon. Besides, the TGI with NCI-H23 lung is 17.1 µM; with HT29 colon, 44.9 µM; in the assay with HL-60(TB) leukemia, 18.5 µM.

Turning to `CCOC(=O)c1cn(C)c(=S)n2c1nc1ccccc12`, the TGI in the assay with IGROV1 ovarian, in the assay on HCT-116 colon, with CCRF-CEM leukemia, in the assay on NCI-H226 lung, with BT-549 breast and with OVCAR-8 ovarian was greater than 100 µM each time. The TGI in the assay with COLO 205 colon and in the assay with NCI-H23 lung was greater than 100 µM each time.

`Cc1ccccc1OC(C)C(=O)NN1C(=O)CC(=O)N(c2ccccc2)C1=S` (configuration not stated): the TGI with IGROV1 ovarian, in the assay on HCT-116 colon, in the assay on NCI-H226 lung, with BT-549 breast, with OVCAR-8 ovarian and with COLO 205 colon was greater than 100 µM in each case. Besides, the results for the TGI with NCI-H23 lung, in the assay on HT29 colon and in the assay with HL-60(TB) leukemia were greater than 100 µM, greater than 100 µM and 61.2 µM, respectively.

On to `C/C(=N\Nc1nc2ccccc2[nH]1)c1cc2ccccc2cn1`, for which the TGI came out at 1.13 µM in the assay with IGROV1 ovarian; 1.04 µM with HCT-116 colon; 5.65 µM with CCRF-CEM leukemia; 1.69 µM in the assay with NCI-H226 lung; 21.2 µM in the assay with BT-549 breast; 1.24 µM in the assay on OVCAR-8 ovarian. Also, the figures for the TGI with NCI-H23 lung and in the assay on HT29 colon were 1.64 µM and 1.02 µM, respectively.

With `COc1ccccc1CNCCCCCCCCCCCCN1C(=O)c2ccc3c4c(ccc(c24)C1=O)C(=O)N(CCCCCCCCCCCCNCc1ccccc1OC)C3=O`, the GI50 was greater than 50 µM with IGROV1 ovarian; greater than 50 µM in the assay on NCI-H226 lung; 7.74 µM in the assay with BT-549 breast; 0.908 µM in the assay with OVCAR-8 ovarian; greater than 50 µM with COLO 205 colon; 2.01 µM in the assay on HT29 colon. The GI50 in the assay with HL-60(TB) leukemia was greater than 50 µM. For the same compound, the TGI is greater than 50 µM in the assay on IGROV1 ovarian; greater than 50 µM with NCI-H226 lung; 20.2 µM in the assay with BT-549 breast; 1.94 µM with OVCAR-8 ovarian; greater than 50 µM in the assay with COLO 205 colon; greater than 50 µM in the assay on HT29 colon. Further, in the assay on HL-60(TB) leukemia, the TGI is greater than 50 µM.

With `CCOC(=O)C1CCCCN1CCc1c[nH]c2ccccc12` (configuration not stated), the TGI with IGROV1 ovarian, in the assay on HCT-116 colon, in the assay with CCRF-CEM leukemia, in the assay with NCI-H226 lung, with BT-549 breast and in the assay on OVCAR-8 ovarian was greater than 100 µM throughout. The TGI in the assay with COLO 205 colon, with NCI-H23 lung and in the assay on HT29 colon was greater than 100 µM each time.
